Assay results taken from publication PMC11836371, “Virtual fragment screening for DNA repair inhibitors in vast chemical space” (Nature Communications, 2025).
Values joined by “and” are separate entries in the source; they are usually repeats but may differ in a detail not shown here. Identical values can stand only once. Like-named read-outs stand apart in the source and are kept apart here.

Experiments:
[1] = target: T1, human OGG1 enzyme (Homo sapiens, UniProt O15527); test: OGG1 glycosylase activity assay (enzyme inhibition, APE1-coupled fluorescence); type: biochemical
Protocol: “8” signifies 8-oxoA and “FAM” and “Dab” signify fluorescein and dabcyl (TriLink Biotech). Briefly, compounds dissolved in DMSO were dispensed using an Echo 550 (Labcyte), followed by transfer of enzyme and substrate solutions manually with a 16-channel pipette or with a Multidrop (Thermo Scientific). The plates were centrifuged, sealed and incubated at room temperature overnight (15 h) and read the following morning in an Hidex Sense plate reader (Hidex Oy) using a 485-nm filter with a bandwidth of 10 nm for excitation and a 535-nm filter with a bandwidth of 20 nm for emission.

[2] = target: T1, human OGG1 enzyme; test: Differential scanning fluorimetry (DSF) thermal shift assay; type: binding; set-up: ∆Tm (K): unit of the concentration uncertain; details: for ΔTm: concentration not given
Protocol: The temperature was increased from 20 °C to 85 °C with 10 readings/degree. Tm values were calculated using an excel template and fitting to the Boltzmann equation in Prism v.6.07 (GraphPad Software).

[3] = system: A2780 cells; test: Cancer cell viability assay (resazurin), A2780; type: cell-based; set-up: key to cell viability, cytotoxicity curve (Figure3H): % viability relative to untreated control wells
Outline: (§1)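 Cells were exposed for 72 h at 37 °C, 5% CO2 to 11-point compound dose-response curves in 10% FBS medium. Resazurin (final 10 µg/mL) was then added for 6 h and resorufin fluorescence read (ex 544/em 595 nm). Viability relative to untreated wells; EC50 from curve fitting.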

[4] = system: A549 cells; test: Cancer cell viability assay (resazurin), A549; type: cell-based; details: two independent experiments
Outline: as §1

[5] = system: HCT116 cells; test: Cancer cell viability assay (resazurin), HCT116; type: cell-based; details: HCT116, 100 μM, two independent experiments; 100 µM
Outline: as §1

[6] = Cell viability assay (resazurin), BJhTERT non-transformed control; type: cell-based; details: human, BJhTERT immortalized fibroblast cells, BJhTERT
Outline: (§2)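 Cells in FBS-supplemented media exposed to compound for 72 h at 37 °C, 5% CO2, then resazurin added to 10 µg/mL final. Viability expressed relative to untreated control wells; EC50 derived by curve fitting.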

[7] = system: BJhTERT cells; test: as above; type: cell-based; details: BJhTERT
Outline: as §2

[8] = Metabolic stability in human liver microsomes; type: in vitro ADME; details: pH 7.4, intrinsic clearance
Protocol: Human liver microsomes were purchased from BioIVT. Metabolic stability was determined in 0.5 mg/mL human liver microsomes at a compound concentration of 1 µM in 100 mM KPO4 buffer pH 7.4 in a total incubation volume of 500 µL. The reaction was initiated by the addition of 1 mM NADPH. At various incubation times, i.e., at 0, 5, 10, 20, 40, and 60 min, a sample was withdrawn from the incubation and the reaction was terminated by the addition of cold acetonitrile with warfarin as an internal standard. The amount of parent compound remaining was analyzed by liquid chromatography coupled to triple quadrupole mass spectrometry (LC-MS/MS).

[9] = Plasma protein binding in human plasma (RED); type: in vitro ADME; details: plasma (50% plasma, 50% isotonic buffer), pH 7.4, read-out: Protein plasma binding, fu (%)
Protocol: Pooled human plasma was provided by Uppsala Academic Hospital and was collected from two donors (non-smoking) (citric acid). In brief, 0.2 mL of the plasma (50% plasma, 50% isotonic buffer) test solution (typically 10 µM final compound concentration) was transferred to the membrane tube in the RED insert (ThermoFisher Scientific). 0.35 ml isotonic phosphate buffer pH 7.4 was added to the other side of the membrane. The 96-well base plate was then sealed with an adhesive plastic film (Scotch Pad) to prevent evaporation. The sample was incubated with rapid rotation (>>900 rpm) on a Kisker rotational incubator at 37 °C for 4 h to achieve equilibrium. Prior to LC-MS/MS analysis the plasma and buffer samples were treated with the addition of Methanol (1:3) containing Warfarin as an internal standard to precipitate proteins. The standard curve was created using the plasma standard. The plate was then sealed, and centrifuged and the supernatant was analyzed by liquid chromatography coupled to triple quadrupole mass spectrometry (LC-MS/MS).

T1 sequence (O15527 whole entry): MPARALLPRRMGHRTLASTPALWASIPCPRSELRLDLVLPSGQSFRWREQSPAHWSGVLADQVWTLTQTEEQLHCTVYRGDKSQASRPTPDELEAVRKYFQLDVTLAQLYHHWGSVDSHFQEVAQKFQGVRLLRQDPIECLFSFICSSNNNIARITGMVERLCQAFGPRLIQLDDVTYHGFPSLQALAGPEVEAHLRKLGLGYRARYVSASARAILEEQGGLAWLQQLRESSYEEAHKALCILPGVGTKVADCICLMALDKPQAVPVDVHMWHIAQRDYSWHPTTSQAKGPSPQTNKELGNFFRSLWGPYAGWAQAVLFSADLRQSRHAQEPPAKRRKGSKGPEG

For Cc1nc(-c2cc(F)c(CC(=O)Nc3noc4c3CCCC4)c(F)c2)c(C)[nH]1 [compound 23], the “OGG1 inhibition, dose-response (Figure2C)” value (“OGG1 inhibition” for short) ([1]; Concentration (M) 1.93e-7) was 9.69 and 17.93 and 10.41 and 18.5, the “OGG1 inhibition” value ([1]; Concentration (M) 3.87e-7) was 29.24 and 27.63 and 28.59 and 28.11 and the “OGG1 inhibition” value ([1]; Concentration (M) 7.73e-7) was 53.6 and 49.32 and 48.44 and 47.84. The “OGG1 inhibition” value ([1]; Concentration (M) 1.55e-6) was 59.42 and 67.01 and 59.08 and 66.62, the “OGG1 inhibition” value ([1]; Concentration (M) 3.09e-6) was 78.97 and 77.03 and 76.1 and 78.52 and the “OGG1 inhibition” value ([1]; Concentration (M) 6.19e-6) was 89 and 85.95 and 85.06 and 85.7. For the same molecule, the “OGG1 inhibition” value ([1]; Concentration (M) 1.24e-5) was 91.41 and 94.39 and 90.13 and 92.43, the “OGG1 inhibition” value ([1]; Concentration (M) 2.48e-5) was 94.22 and 97.46 and 92.46 and 96.53 and the “OGG1 inhibition” value ([1]; Concentration (M) 4.95e-5) was 94.91 and 98.52 and 101.44 and 105.23. The “OGG1 inhibition” value ([1]; Concentration (M) 9.9e-5) was 93.34 and 96.5 and 102.87 and 104.38, the IC50 ([1]; Figure 3B source data, three independent experiments, read-out: IC50 OGG1) was 442 nM and 646 nM and 620 nM and the “increase of inhibitory potency compared to fragment 1” value ([1]; ratio of IC50 values) was over 165 fold. The IC50 ([1]; read-out: IC50) was 600 nM, the “∆Tm (K)” value ([2]; 99 μM) was 9.0 ± 0.2 K and the “∆Tm (K)” value ([2]; 99 (unit uncertain) as printed in sheet footnote) was 9.0 ± 0.2 K. For the same molecule, the ΔTm [2] was 9.0 K, the percentage cell viability ([3]; A2780, 100 μM, two independent experiments, 100 µM) was 42.92% and the viability at 100 µM ([3]; Homo sapiens, A2780, A2780, 100 μM, two independent experiments, read-out: percentage cell viability) was 33.8%. The percentage cell viability ([4]; A549, 100 μM, 100 µM) was 73.95%, the viability at 100 µM ([4]; Homo sapiens, A549, A549, 100 μM, read-out: percentage cell viability) was 60.6% and the percentage cell viability [5] was 61.96% and 97.34%. For the same molecule, the viability at 72 h, 100 µM ([6]; 100 μM, two independent experiments, read-out: percentage cell viability) was 67.4%, the percentage cell viability ([7]; 100 μM, two independent experiments) was 68.66% and the microsomal CLint at 1 µM [8] was 39.7 µL/min/mg. It also gave a fraction unbound at 4 h, 10 µM [9] of 0.048.
In the case of O=C(Nc1ccc(I)cc1)N1CCC(n2c(=O)[nH]c3c(Br)cccc32)CC1 [TH5487, reference compound], the IC50 ([1]; read-out: IC50) is reported as 340 nM, the “∆Tm (K)” value ([2]; 495 µM) is reported as 4.3 K and the “∆Tm (K)” value ([2]; 495 (unit uncertain) as printed in sheet footnote) is reported as 4.3 K. For the same molecule, the ΔTm [2] was 4.3 K, the “cell viability, cytotoxicity curve (Figure3H)” value (shortened to “cell viability … (Figure3H)”) ([3]; A2780, Log conc. (M) 1.69824e-9) was 121.27 and 94.15 and the “cell viability … (Figure3H)” value ([3]; A2780, Log conc. (M) 5.12861e-9) was 114.3 and 105.95. For the same molecule, the “cell viability … (Figure3H)” value ([3]; A2780, Log conc. (M) 1.51356e-8) was 105.54 and 93.28, the “cell viability … (Figure3H)” value ([3]; A2780, Log conc. (M) 4.57088e-8) was 111.22 and 83.28 and the “cell viability … (Figure3H)” value ([3]; A2780, Log conc. (M) 1.38038e-7) was 102.55 and 80.89. The “cell viability … (Figure3H)” value ([3]; A2780, Log conc. (M) 4.0738e-7) was 93.7 and 80.77, the “cell viability … (Figure3H)” value ([3]; A2780, Log conc. (M) 1.23027e-6) was 109.2 and 106.39 and the “cell viability … (Figure3H)” value ([3]; A2780, Log conc. (M) 3.71535e-6) was 104.11 and 96.04. For the same molecule, the “cell viability … (Figure3H)” value ([3]; A2780, Log conc. (M) 1.12202e-5) was 67.93 and 61.64, the “cell viability … (Figure3H)” value ([3]; A2780, Log conc. (M) 3.31131e-5) was 4.85 and 2.91 and the “cell viability … (Figure3H)” value ([3]; A2780, Log conc. (M) 0.0001) was 1.49 and 1.08. The viability at 72 h, 1.69824e-09 M ([6]; Log conc. (M) 1.69824e-9, read-out: cell viability, cytotoxicity curve (Figure3H)) was 74.4%, the viability at 72 h, 5.12861e-09 M ([6]; Log conc. (M) 5.12861e-9, read-out: cell viability, cytotoxicity curve (Figure3H)) was 72.6% and the viability at 72 h, 1.51356e-08 M ([6]; Log conc. (M) 1.51356e-8, read-out: cell viability, cytotoxicity curve (Figure3H)) was 78%. For the same molecule, the viability at 72 h, 4.57088e-08 M ([6]; Log conc. (M) 4.57088e-8, read-out: cell viability, cytotoxicity curve (Figure3H)) was 84%, the viability at 72 h, 1.38038e-07 M ([6]; Log conc. (M) 1.38038e-7, read-out: cell viability, cytotoxicity curve (Figure3H)) was 81.8% and the viability at 72 h, 4.0738e-07 M ([6]; Log conc. (M) 4.0738e-7, read-out: cell viability, cytotoxicity curve (Figure3H)) was 80.5%. It also gave a viability at 72 h, 1.23027e-06 M ([6]; Log conc. (M) 1.23027e-6, read-out: cell viability, cytotoxicity curve (Figure3H)) of 81.8%, a viability at 72 h, 3.31131e-05 M ([6]; Log conc. (M) 3.31131e-5, read-out: cell viability, cytotoxicity curve (Figure3H)) of 47% and a viability at 72 h, 0.0001 M ([6]; Log conc. (M) 0.0001, read-out: cell viability, cytotoxicity curve (Figure3H)) of 5.37%. For the same molecule, the “cell viability … (Figure3H)” value ([7]; Log conc. (M) 1.69824e-9) was 92.09, the “cell viability … (Figure3H)” value ([7]; Log conc. (M) 5.12861e-9) was 85.03 and the “cell viability … (Figure3H)” value ([7]; Log conc. (M) 1.51356e-8) was 85.22. The “cell viability … (Figure3H)” value ([7]; Log conc. (M) 4.57088e-8) was 94.5, the “cell viability … (Figure3H)” value ([7]; Log conc. (M) 1.38038e-7) was 96.92 and the “cell viability … (Figure3H)” value ([7]; Log conc. (M) 4.0738e-7) was 95.59. The “cell viability … (Figure3H)” value ([7]; Log conc. (M) 1.23027e-6) was 90.96, the “cell viability … (Figure3H)” value ([7]; Log conc. (M) 3.71535e-6) was 95.28 and 121.4 and the “cell viability … (Figure3H)” value ([7]; Log conc. (M) 1.12202e-5) was 71.74 and 94.42. The “cell viability … (Figure3H)” value ([7]; Log conc. (M) 3.31131e-5) was 58.03, the “cell viability … (Figure3H)” value ([7]; Log conc. (M) 0.0001) was 5.96 and the microsomal CLint at 1 µM [8] was 4.6 µL/min/mg. It also gave a fraction unbound at 4 h, 10 µM [9] of 0.001.
